Here are results for two molecules from patent US11932623B2, “Uracil compounds and use thereof” (Sumitomo Chemical Company, Limited, priority 2018, dated 2024).

Assay type in all cases: in vivo
One series deals with corn. As to the kind of experiment: Test Example 1: post-emergence foliar spray pot test, safety against useful plants (phytotoxicity). The following applies: for Corn (phytotoxicity score): foliar spray 204 L/ha on plants grown 15 days, assessed after 11 days in greenhouse. The source says:
Further, Test Examples are used to show an efficacy of the compound A on controlling weeds and safety against useful plants (phytotoxicity)
(§1) In the Test Examples as described below, for the assessment of weeds-controlling efficacy, the efficacy is defined as “0” if the condition of budding or growth of test pants in the treated area indicates little or no difference compared to that of the untreated area at the time of the investigation.
(§2) The “untreated group” represents a group where a similar treatment procedure to that of the treated group except not using the compound A is done.
(§3) A plastic pot was filled with soil. Ivyleaf morning glory (Ipomoea hederacea), Redroot pigweed (Amaranthus retroflexus) and corn were seeded to the plastic pot, and the plants are grown in a greenhouse for 15 days. A prescribed amount of the formulation prepared by the method of the formulation example 1 was diluted with water containing 1% of Agridex (registered trademark) to obtain a diluted solution. The diluted solution was uniformly sprayed at a rate of 204 L/ha from the upper side of the plants such that the applied dose of the compound A was made to 20 gai/ha or 10 gai/ha. Thereafter, the plants were grown in a greenhouse for 11 days, and the control efficacies were assessed by the above-mentioned method. The results are shown in [Table 1].
(§4) The comparative test was conducted by using the compound B in place of the compound A according to a similar method to that described in the Test example 1.

Series [1] has as its system Ivyleaf morning glory (Ipomoea hederacea). As to the kind of experiment: Test Example 1: post-emergence foliar spray pot test, weed control efficacy. The following applies: for efficacy on controlling weeds against Ivyleaf morning glory (Ipomoea hederacea), in words: 20 or 10 gai/ha; for control efficacy, Ipomoea hederacea: foliar spray 204 L/ha on plants grown 15 days, assessed after 11 days in greenhouse, scale 0 to 100 (all dead).
From the text: as §1, §2, §3, §4

In series [2] the test system is Redroot pigweed (Amaranthus retroflexus). Described as above. The following applies: for efficacy on controlling weeds against Redroot pigweed (Amaranthus retroflexus), in words: 20 or 10 gai/ha; for control efficacy, Amaranthus retroflexus: foliar spray 204 L/ha on plants grown 15 days, assessed after 11 days in greenhouse.
From the text: as §1, §2, §3, §4

Where [3] appears, read: applied dose 10 gai/ha, scale 0 to 100 (all dead).
The mark [4] stands for this setting: applied dose 20 gai/ha, scale 0 (no difference to untreated) to 100 (all dead).

For the molecule `CCOC(=O)COc1ncccc1Oc1cc(-n2c(=O)cc(C(F)(F)F)n(C)c2=O)c(Cl)cc1Cl` [Compound A], the “phytotoxicity against corn, in words” value in the series with corn (in vivo) is “low phytotoxicity”. Also, the “efficacy on controlling weeds against Ivyleaf morning glory (Ipomoea hederacea), in words” value in series [1] is “high efficacies”. Moreover, the “control efficacy, Ipomoea hederacea” value in series [1] (applied dose 10 gai/ha) and in series [1] (applied dose 20 gai/ha) was 100 throughout. Further, in series [2], the “efficacy on controlling weeds against Redroot pigweed (Amaranthus retroflexus), in words” value is listed as “high efficacies”. Besides, the “control efficacy, Amaranthus retroflexus” value in series [2] (setting [3]) and in series [2] (setting [4]) was 100 each time.
In the case of `CCOC(=O)COc1ncccc1Oc1cc(-n2c(=O)cc(C(F)(F)F)n(C)c2=O)c(F)cc1Cl` [Compound B], the “phytotoxicity against corn, in words” value in the series on corn (20 or 10 gai/ha) is reported as “high phytotoxicity”. In addition, the “Corn (phytotoxicity score)” value with corn (setting [3]) and in the series on corn (setting [4]) was 100 in each case. In series [1], the “efficacy on controlling weeds against Ivyleaf morning glory (Ipomoea hederacea), in words” value is “high efficacies”. The “control efficacy, Ipomoea hederacea” value in series [1] (applied dose 10 gai/ha) and in series [1] (applied dose 20 gai/ha) was 100 each time. In addition, the “efficacy on controlling weeds against Redroot pigweed (Amaranthus retroflexus), in words” value in series [2] is “high efficacies”. Besides, the “control efficacy, Amaranthus retroflexus” value in series [2] (setting [3]) and in series [2] (setting [4]) was 100 each time.
